Patent US9278958B2, “Anti-cancer compounds” (KATHOLIEKE UNIVERSITEIT LEUVEN, priority 2012, dated 2016)
Read-outs that look alike come from different tables or passages of the source.

Key:
[1] = tested on: PC3 (rega) prostate cancer cells; assay: Cytostatic assay, PC3 (rega); type: cell-based; conditions: Table 4
Procedure: (§1) To each well of a 96-well microtiter plate were added 5-7.5×10^4 cells and a given amount of the test compound. The cells were allowed to proliferate for 48 h to 96 h (depending on the nature of the cell line) at 37° C. in a humidified CO2-controlled atmosphere. At the end of the incubation period, the cells were counted in a Coulter Counter (Coulter Electronics Ltd, Harpenden Herts, United Kingdom).

[2] = tested on: FM3A mammary carcinoma cells; assay: Cytostatic assay, FM3A; type: cell-based, murine; conditions: Mus musculus, Table 3
Procedure: as §1

[3] = tested on: HL60, human leukemia cells; assay: Cytostatic assay, HL-60; type: cell-based; conditions: Table 2
Procedure: as §1

HepG2C3A hepatoma cells = assay: Cytostatic assay, HepG2C3A; type: cell-based; conditions: Homo sapiens, HepG2/C3A; Table 4
Procedure: as §1

[4] = tested on: LNCaP (UZ) prostate cancer cells; assay: Cytostatic assay, LNCaP (UZ); type: cell-based; conditions: Homo sapiens, Table 4
Procedure: as §1

[5] = tested on: Caki-1 kidney carcinoma cells; assay: Cytostatic assay, Caki-1; type: cell-based; conditions: Homo sapiens, Table 3
Procedure: as §1

[6] = tested on: Caki-2 kidney carcinoma cells; assay: Cytostatic assay, Caki-2; type: cell-based; conditions: Homo sapiens, Table 3
Procedure: as §1

[7] = tested on: HEL embryonic lung fibroblast cells; assay: Cytostatic assay, HEL; type: cell-based; conditions: Homo sapiens, Table 3
Procedure: as §1

[8] = tested on: OST TK- osteosarcoma cells; assay: Cytostatic assay, OST TK-; type: cell-based; conditions: Homo sapiens; Table 3
Procedure: as §1

BPH-1 (UZ) = assay: Cytostatic assay, BPH-1 (UZ); type: cell-based; conditions: Homo sapiens, Table 4
Procedure: as §1

[9] = tested on: DU145 (UZ) prostate cancer cells; assay: Cytostatic assay, DU145 (UZ); type: cell-based; conditions: Homo sapiens, DU-145; Table 4
Procedure: as §1

[10] = tested on: PC-3 (UZ) prostate cancer cells; assay: Cytostatic assay, PC-3 (UZ); type: cell-based; conditions: Table 4
Procedure: as §1

Huh-7 hepatoma cells = assay: Cytostatic assay, Huh-7; type: cell-based; conditions: Homo sapiens, Table 4
Procedure: as §1

MT-2 cells = assay: Cytostatic assay, MT-2; type: cell-based; conditions: Homo sapiens, MT2; Table 2
Procedure: as §1

[11] = tested on: BAEC aortic endothelial cells; assay: Cytostatic assay, BAEC; type: cell-based, bovine; conditions: Bos taurus, Table 3
Procedure: as §1

[12] = tested on: PNT1A (UZ) prostate cells; assay: Cytostatic assay, PNT1A (UZ); type: cell-based; conditions: Homo sapiens, Table 4
Procedure: as §1

[13] = tested on: U937, human monocytic cells; assay: Cytostatic assay, U937; type: cell-based; conditions: U-937, Table 2
Procedure: as §1

Sup T1 cells = assay: Cytostatic assay, Sup T1; type: cell-based; conditions: Homo sapiens, Table 2, read-out: Cytostatic activity (μM) Sup T 1
Procedure: as §1

HUT-78 cells = assay: Cytostatic assay, HUT-78; type: cell-based; conditions: Homo sapiens, HuT78; Table 2
Procedure: as §1

[14] = tested on: THP-1, human monocytic cells; assay: Cytostatic assay, THP-1; type: cell-based; conditions: Table 2
Procedure: as §1

Molt4/C8 cells = assay: Cytostatic assay, Molt4/C8; type: cell-based; conditions: Table 2
Procedure: as §1

MT-4 cells = assay: Cytostatic assay, MT-4; type: cell-based; conditions: Homo sapiens, MT4; Table 2
Procedure: as §1

CEM cells = assay: Cytostatic assay, CEM; type: cell-based; conditions: Homo sapiens, CCRF-CEM
Procedure: as §1

[15] = tested on: MCF-7 mammary carcinoma cells; assay: Cytostatic assay, MCF-7; type: cell-based; conditions: Homo sapiens, MCF7; Table 3
Procedure: as §1

[16] = tested on: 22Rv1 (UZ) prostate cancer cells; assay: Cytostatic assay, 22Rv1 (UZ); type: cell-based; conditions: Homo sapiens, Table 4
Procedure: as §1

[17] = tested on: HeLa cervix carcinoma cells; assay: Cytostatic assay, HeLa; type: cell-based, human; conditions: Homo sapiens; Table 3; read-out: Cytostatic activity (μM) Hela
Procedure: as §1

[18] = tested on: HT29 colorectal carcinoma cells; assay: Cytostatic assay, HT29; type: cell-based; conditions: Homo sapiens, HT-29; Table 3
Procedure: as §1

[19] = tested on: 293T embryonic kidney cells; assay: Cytostatic assay, 293T; type: cell-based; conditions: Homo sapiens, HEK-293T; Table 3
Procedure: as §1

U87 glioma cells = assay: Cytostatic assay, U87; type: cell-based; conditions: Homo sapiens, U-87 MG; Table 3
Procedure: as §1

[20] = tested on: Raji, human B-lymphoma cells; assay: Cytostatic assay, Raji; type: cell-based; conditions: Table 2
Procedure: as §1

C8166 cells = assay: Cytostatic assay, C8166; type: cell-based; conditions: Homo sapiens, Table 2
Procedure: as §1

PLC/PRF/5 hepatoma cells = assay: Cytostatic assay, PLC/PRF/5; type: cell-based; conditions: Homo sapiens, Table 4
Procedure: as §1

L1210 cells = assay: Cytostatic assay, L1210; type: cell-based; conditions: Mus musculus, Table 2
Procedure: as §1

[21] = Table 1a, read-out: IC50 μM (CEM)
[22] = Table 2, read-out: Cytostatic activity (μM) CEM

Structure (SMILES)	IC50 [1]	IC50 [2]	IC50 [3]	IC50 (HepG2C3A hepatoma cells)	IC50 [4]	IC50 [5]	IC50 [6]	IC50 [7]	IC50 [8]	IC50 (BPH-1 (UZ))	IC50 [9]	IC50 [10]	IC50 (Huh-7 hepatoma cells)	IC50 (MT-2 cells)	IC50 [11]	IC50 [12]	IC50 [13]	IC50 (Sup T1 cells)	IC50 (HUT-78 cells)	IC50 [14]	other results
COC(=O)c1c(N)sc(CCc2cc(OC)ccc2OC)c1C [TR599, 2-Amino-5-[2-(2,5-dimethoxy-phenyl)-ethyl]-4-methyl-thiophene-3-carboxylic acid methyl ester]	24 ± 12 µM	48 ± 3.5 µM	18 ± 4.9 µM	34 ± 22 µM	8.7 ± 4.7 µM	57 ± 38 µM	52 ± 17 µM	46 ± 3.5 µM	34 ± 23 µM	43 ± 3.5 µM	35 ± 16 µM	25 ± 5.7 µM	52 ± 7.8 µM	37 ± 29 µM	52 ± 46 µM	46 ± 2.1 µM	68 ± 0.7 µM	32 ± 15 µM	21 ± 1.4 µM	9 ± 0.6 µM	IC50 (Molt4/C8 cells): 47 ± 16 µM; IC50 (MT-4 cells): 58 ± 21 µM; IC50 (CEM cells; [21]): 44 µM; IC50 (CEM cells; [22]): 44 µM; IC50 [15]: 11 ± 8.5 µM; IC50 [16]: 28 ± 19 µM; IC50 [17]: 38 ± 11 µM; IC50 [18]: 47 ± 2.1 µM; IC50 [19]: 52 ± 2.1 µM; IC50 (U87 glioma cells): 41 ± 4.9 µM; IC50 [20]: 49 ± 13 µM; IC50 (C8166 cells): 110 ± 31 µM; IC50 (PLC/PRF/5 hepatoma cells): 36 ± 2.8 µM
COC(=O)c1cc(-c2ccccc2OC)sc1N [TR581, 2-Amino-5-(2-methoxy-phenyl)-thiophene-3-carboxylic acid methyl ester]	26 ± 8.5 µM	275 ± 206 µM	16 ± 3.5 µM	38 ± 27 µM	9.7 ± 5.1 µM	39 ± 2.1 µM	28 ± 18 µM	24 ± 2.1 µM	45 ± 4.2 µM	50 ± 5.7 µM	35 ± 6.4 µM	28 ± 4.9 µM	59 ± 17 µM	103 ± 52 µM	38 ± 2.1 µM	58 ± 13 µM	82 ± 7.1 µM	45 ± 31 µM	152 ± 44 µM	69 ± 13 µM	IC50 (Molt4/C8 cells): 39 ± 8 µM; IC50 (MT-4 cells): 36 ± 15 µM; IC50 (L1210 cells): 204 ± 85 µM; IC50 (CEM cells; [21]): 55 µM; IC50 (CEM cells; [22]): 55 µM; IC50 [15]: 29 ± 20 µM; IC50 [16]: 42 ± 7.6 µM; IC50 [17]: 41 ± 4.9 µM; IC50 [18]: 43 ± 1.4 µM; IC50 [19]: 72 ± 4.9 µM; IC50 (U87 glioma cells): 42 ± 5.7 µM; IC50 [20]: 59 ± 11 µM; IC50 (C8166 cells): 149 ± 14 µM; IC50 (PLC/PRF/5 hepatoma cells): 36 ± 4.2 µM
COC(=O)c1cc(CCc2ccccn2)sc1N [TR596, 2-Amino-5-(2-pyridin-2-yl-ethyl)-thiophene-3-carboxylic acid methyl ester]	8.5 ± 7.8 µM	210 ± 17 µM	73 ± 30 µM	69 ± 45 µM	4.3 ± 3.2 µM	17 ± 13 µM	> 200 µM	43 ± 9.2 µM	135 ± 92 µM	> 100 µM	> 100 µM	8.6 ± 0.21 µM	46 ± 34 µM	48 ± 7.1 µM	> 100 µM	> 100 µM	> 200 µM	99 µM	142 ± 83 µM	116 ± 49 µM	IC50 (Molt4/C8 cells): 21 ± 4 µM; IC50 (MT-4 cells): > 100 µM; IC50 (L1210 cells): 101 ± 28 µM; IC50 (CEM cells; [21]): 63 µM; IC50 (CEM cells; [22]): 63 ± 7.8 µM; IC50 [15]: 72 ± 45 µM; IC50 [16]: 77 ± 27 µM; IC50 [17]: 45 ± 3 µM; IC50 [18]: > 100 µM; IC50 [19]: > 100 µM; IC50 (U87 glioma cells): > 100 µM; IC50 [20]: 76 ± 35 µM; IC50 (C8166 cells): ≥ 200 µM; IC50 (PLC/PRF/5 hepatoma cells): > 100 µM
COC(=O)c1cc(-c2cc(OC)ccc2OC)sc1N [TR601, 2-Amino-5-(2,5-dimethoxy-phenyl)-thiophene-3-carboxylic acid methyl ester]	23 ± 14 µM	59 ± 11 µM	21 µM	22 ± 18 µM	21 ± 8.5 µM	8.8 ± 3.1 µM	24 ± 9.2 µM	17 ± 5.7 µM	32 ± 18 µM	31 µM	37 ± 2.1 µM	25 µM	49 ± 19 µM	14 ± 2.8 µM	26 ± 7.1 µM	38 ± 5.7 µM	85 ± 2.8 µM	38 ± 25 µM	109 ± 82 µM	25 ± 5.7 µM	IC50 (Molt4/C8 cells): 28 ± 6 µM; IC50 (MT-4 cells): 50 ± 25 µM; IC50 (CEM cells; [21]): 42 µM; IC50 (CEM cells; [22]): 42 ± 1.4 µM; IC50 [15]: 44 ± 28 µM; IC50 [16]: 11 ± 4.8 µM; IC50 [17]: 39 ± 9.2 µM; IC50 [18]: 42 µM; IC50 [19]: 43 ± 16 µM; IC50 (U87 glioma cells): 25 µM; IC50 [20]: 45 ± 11 µM; IC50 (C8166 cells): 102 ± 1.4 µM; IC50 (PLC/PRF/5 hepatoma cells): 26 ± 0.71 µM
CCOC(=O)c1c(N)sc(CCc2ccc(OC)cc2)c1C(=O)OCC [TR547, 2-Amino-5-[2-(4-methoxy-phenyl)-ethyl]-thiophene-3,4-dicarboxylic acid diethyl ester]	38 ± 12 µM	86 ± 5.6 µM	46 ± 25 µM	48 ± 16 µM	19 ± 10 µM	87 ± 21 µM	57 ± 24 µM	44 ± 3.5 µM	71 ± 7.8 µM	65 ± 9.2 µM	89 ± 16 µM	31 ± 5.7 µM	51 ± 14 µM	31 ± 29 µM	82 ± 26 µM	56 µM	80 ± 3.5 µM	73 ± 13 µM	120 ± 44 µM	26 ± 2.8 µM	IC50 (Molt4/C8 cells): 54 ± 6 µM; IC50 (MT-4 cells): 38 ± 3.5 µM; IC50 (L1210 cells): 105 ± 48 µM; IC50 (CEM cells; [21]): 72 µM; IC50 (CEM cells; [22]): 72 ± 6.4 µM; IC50 [15]: 87 ± 21 µM; IC50 [16]: 31 ± 4.2 µM; IC50 [17]: 41 ± 7.1 µM; IC50 [18]: 46 ± 3.5 µM; IC50 [19]: 58 ± 2.8 µM; IC50 (U87 glioma cells): 81 ± 27 µM; IC50 [20]: 58 ± 13 µM; IC50 (C8166 cells): 122 ± 12 µM; IC50 (PLC/PRF/5 hepatoma cells): 75 ± 35 µM
